Reference: the NIST ThermoML archive (doi:10.1016/j.fluid.2019.05.015)

How the values were obtained:
[1] = refractive index (Na D-line) (dimensionless); xn = mol fraction of the nth substance listed; conditions: 100 kPa, Liquid, Standard Abbe refractometry
[2] = mean ionic activity coefficient (dimensionless); mn = molality of the nth substance listed, in mol/kg; conditions: 100 kPa, Liquid, Electrochemical cell potential

CCn1cc[n+](C)c1.[Br-] [1-ethyl-3-methylimidazolium bromide] + O
Conditions | mean ionic activity coefficient | refractive index
[1], 298.2 K, x2 = 0.0971 | – | 1.549
[1], 298.2 K, x2 = 0.188 | – | 1.545
[1], 298.2 K, x2 = 0.2981 | – | 1.536
[1], 298.2 K, x2 = 0.3857 | – | 1.5335
[1], 298.2 K, x2 = 0.471 | – | 1.525
[1], 298.2 K, x2 = 0.5966 | – | 1.5115
[1], 298.2 K, x2 = 0.6884 | – | 1.4985
[1], 298.2 K, x2 = 0.7863 | – | 1.4625
[1], 298.2 K, x2 = 0.8884 | – | 1.4305
[1], 308.2 K, x2 = 0.0926 | – | 1.5455
[1], 308.2 K, x2 = 0.1801 | – | 1.5425
[1], 308.2 K, x2 = 0.2947 | – | 1.534
[1], 308.2 K, x2 = 0.3829 | – | 1.53
[1], 308.2 K, x2 = 0.4714 | – | 1.5235
[1], 308.2 K, x2 = 0.5983 | – | 1.509
[1], 308.2 K, x2 = 0.6871 | – | 1.4955
[1], 308.2 K, x2 = 0.7851 | – | 1.4595
[1], 308.2 K, x2 = 0.888 | – | 1.427
[1], 318.2 K, x2 = 0.0923 | – | 1.5425
[1], 318.2 K, x2 = 0.1796 | – | 1.54
[1], 318.2 K, x2 = 0.2939 | – | 1.531
[1], 318.2 K, x2 = 0.382 | – | 1.5265
[1], 318.2 K, x2 = 0.4704 | – | 1.521
[1], 318.2 K, x2 = 0.5974 | – | 1.5065
[1], 318.2 K, x2 = 0.6862 | – | 1.4925
[1], 318.2 K, x2 = 0.7844 | – | 1.458
[1], 318.2 K, x2 = 0.8876 | – | 1.425
[2], 298.2 K, m1 = 0.021 | 0.8957 | –
[2], 298.2 K, m1 = 0.0419 | 0.748 | –
[2], 298.2 K, m1 = 0.0585 | 0.7149 | –
[2], 298.2 K, m1 = 0.0791 | 0.6998 | –
[2], 298.2 K, m1 = 0.0995 | 0.6908 | –
[2], 298.2 K, m1 = 0.2548 | 0.5703 | –
[2], 298.2 K, m1 = 0.4968 | 0.4953 | –
[2], 298.2 K, m1 = 0.7334 | 0.45 | –
[2], 298.2 K, m1 = 1.003 | 0.397 | –
[2], 298.2 K, m1 = 1.244 | 0.378 | –
[2], 298.2 K, m1 = 1.489 | 0.361 | –
[2], 308.2 K, m1 = 0.0211 | 0.8798 | –
[2], 308.2 K, m1 = 0.042 | 0.8527 | –
[2], 308.2 K, m1 = 0.0586 | 0.8229 | –
[2], 308.2 K, m1 = 0.0793 | 0.769 | –
[2], 308.2 K, m1 = 0.0999 | 0.7385 | –
[2], 308.2 K, m1 = 0.2555 | 0.6299 | –
[2], 308.2 K, m1 = 0.4948 | 0.5249 | –
[2], 308.2 K, m1 = 0.7324 | 0.4686 | –
[2], 308.2 K, m1 = 1.003 | 0.42 | –
[2], 308.2 K, m1 = 1.245 | 0.39 | –
[2], 308.2 K, m1 = 1.489 | 0.375 | –
[2], 308.2 K, m1 = 1.744 | 0.363 | –
[2], 308.2 K, m1 = 1.995 | 0.346 | –
[2], 308.2 K, m1 = 2.251 | 0.322 | –
[2], 308.2 K, m1 = 2.499 | 0.307 | –
[2], 318.2 K, m1 = 0.0093 | 0.8999 | –
[2], 318.2 K, m1 = 0.0187 | 0.8927 | –
[2], 318.2 K, m1 = 0.0418 | 0.8287 | –
[2], 318.2 K, m1 = 0.0603 | 0.7921 | –
[2], 318.2 K, m1 = 0.0786 | 0.7691 | –
[2], 318.2 K, m1 = 0.1014 | 0.7508 | –
[2], 318.2 K, m1 = 0.2568 | 0.6434 | –
[2], 318.2 K, m1 = 0.4956 | 0.5317 | –
[2], 318.2 K, m1 = 0.7332 | 0.4709 | –
[2], 318.2 K, m1 = 1.003 | 0.423 | –
[2], 318.2 K, m1 = 1.244 | 0.399 | –
[2], 318.2 K, m1 = 1.487 | 0.385 | –
[2], 318.2 K, m1 = 1.743 | 0.366 | –
[2], 318.2 K, m1 = 1.995 | 0.344 | –
[2], 318.2 K, m1 = 2.251 | 0.33 | –
[2], 318.2 K, m1 = 2.5 | 0.32 | –
